From US12679878B2, “CRF2 receptor agonists and their use in therapy” (SANOFI, priority 2020, dated 2026)
Where two headings read alike, the source gives them in different places. Starred links: 1 amine or outer side, 2 acyl side, 3 side chain; linkers in the order of their positions; H or OH if unused. Non-standard residues stand in square brackets, D forms with d. Residues, ends and D or L forms follow the SMILES beside them. Groups on a side chain read outwards from the residue. *: point of attachment. C18 diacid = O=C(O)CCCCCCCCCCCCCCCCC(=O)*; γGlu = O=C(O)[C@H](CCC(=O)[*:2])N[*:1]; AEEA = NCCOCCOCC(=O)O; Aib = CC(C)(N)C(=O)O

Target: T1, human CRF2α receptor (Homo sapiens, UniProt Q13324)
T1 construct: expressed in transfected cells; host or cells: TeloHEAC
T1 sequence (Q13324 1-411): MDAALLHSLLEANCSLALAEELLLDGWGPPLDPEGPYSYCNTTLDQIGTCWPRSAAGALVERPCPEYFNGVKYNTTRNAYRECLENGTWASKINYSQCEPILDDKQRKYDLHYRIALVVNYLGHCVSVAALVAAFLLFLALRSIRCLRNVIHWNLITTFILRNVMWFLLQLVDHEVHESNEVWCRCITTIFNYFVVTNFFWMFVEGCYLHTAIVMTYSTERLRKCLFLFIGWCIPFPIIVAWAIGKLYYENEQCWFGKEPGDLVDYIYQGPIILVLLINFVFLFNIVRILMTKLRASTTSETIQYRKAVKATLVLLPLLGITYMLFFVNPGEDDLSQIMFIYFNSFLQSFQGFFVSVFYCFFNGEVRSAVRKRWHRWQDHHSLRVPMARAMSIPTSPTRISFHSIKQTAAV
Assay: cAMP agonism at human CRF2 α receptor in TeloHEAC cells (Example 7)
Assay type: cell-based
Outline: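 Steps: thaw and wash cells; suspend in 1×HBSS, 20 mM HEPES, 0 or 0.1% HSA, 2 mM IBMX; add compound, 30 min RT; lyse with HTRF reagents, 1 h; read 665/620 nm. EC50 calculated, E% versus 1000 nM UCN2.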

[1] = cAMP HTRF, TeloHEAC cells stably expressing human CRF2 α, 0% HSA, read-out: EC50 [nM], 0% HSA
[2] = cAMP HTRF, TeloHEAC cells stably expressing human CRF2 α, 0.1% HSA, read-out: EC50 [nM], 0.1% HSA

Row | Structure (SMILES) | EC50 [1] | EC50 [2] | EC50 (EC50 [nM], 0% HSA) | EC50 (EC50 [nM], 0.1% HSA)
1 | CC[C@H](C)[C@H](N)C(=O)N[C@H](C(=O)N[C@@H](CC(C)C)C(=O)N[C@@H](CO)C(=O)N[C@@H](CC(C)C)C(=O)N[C@@H](CC(=O)O)C(=O)N[C@@H](C(=O)N1CCC[C@H]1C(=O)N[C@H](C(=O)N[C@@H](CCCCN)C(=O)N[C@@H](CC(C)C)C(=O)N[C@@H](CCCCNC(=O)COCCOCCNC(=O)COCCOCCNC(=O)CC[C@H](NC(=O)CCCCCCCCCCCCCCCCC(=O)O)C(=O)O)C(=O)N[C@@H](CCC(N)=O)C(=O)N[C@H](C(=O)N[C@@H](CC(C)C)C(=O)N[C@@H](CC(C)C)C(=O)N[C@@H](CCCCN)C(=O)N[C@@H](CCC(N)=O)C(=O)N[C@@H](CCC(=O)O)C(=O)N[C@@H](CCCNC(=N)N)C(=O)N[C@@H](CCC(N)=O)C(=O)N[C@@H](CCCCN)C(=O)NC(C)(C)C(=O)N[C@@H](CCC(N)=O)C(=O)N[C@@H](CCCNC(=N)N)C(=O)N[C@@H](CCC(=O)O)C(=O)N[C@@H](CCC(N)=O)C(=O)N[C@@H](C)C(=O)N[C@@H](CCC(=O)O)C(=O)N[C@@H](CCCCN)C(=O)N[C@@H](CC(N)=O)C(=O)N[C@@H](CCCCN)C(=O)N[C@@H](CCC(N)=O)C(=O)N[C@H](C(=O)N[C@@H](CC(C)C)C(=O)N[C@@H](CCC(=O)O)C(=O)N[C@@H](CCCNC(=N)N)C(=O)N[C@H](C(N)=O)C(C)C)[C@@H](C)CC)[C@@H](C)CC)[C@@H](C)CC)C(C)C)C(C)C [compound 133] (H-IVLSLD[dV]PIKLK([AEEA-AEEA-γGlu-C18 diacid])QILLKQERQK[Aib]QREQAEKNKQILERV-NH2; N-terminus assumed) | 0.09 nM | 3.19 nM |  | 
2 | CC[C@H](C)[C@H](NC(=O)[C@H](CCC(N)=O)NC(=O)[C@H](CCCCN)NC(=O)[C@H](CC(N)=O)NC(=O)[C@@H](NC(=O)[C@H](CCCCN)NC(=O)[C@H](C)NC(=O)[C@H](CCCCN)NC(=O)[C@H](CCC(N)=O)NC(=O)[C@H](CCCNC(=N)N)NC(=O)[C@H](CCC(N)=O)NC(=O)[C@H](CCCCN)NC(=O)[C@H](CCCCN)NC(=O)[C@H](CCC(N)=O)NC(=O)[C@H](CCCCN)NC(=O)[C@H](CCC(=O)O)NC(=O)[C@H](CCC(N)=O)NC(=O)[C@H](CCCCN)NC(=O)[C@H](CC(C)C)NC(=O)[C@H](CC(C)C)NC(=O)[C@@H](NC(=O)[C@H](CCC(N)=O)NC(=O)[C@H](CCCCNC(=O)COCCOCCNC(=O)COCCOCCNC(=O)CC[C@H](NC(=O)CCCCCCCCCCCCCCCCC(=O)O)C(=O)O)NC(=O)[C@@H](NC(=O)[C@H](CCCCN)NC(=O)[C@@H](NC(=O)[C@@H]1CCCN1C(=O)[C@@H](NC(=O)[C@H](CC(=O)O)NC(=O)[C@H](CC(C)C)NC(=O)[C@H](CO)NC(=O)[C@H](CC(C)C)NC(=O)[C@@H](NC(=O)[C@@H](N)Cc1ccccc1)[C@@H](C)O)C(C)C)[C@@H](C)O)[C@@H](C)CC)[C@@H](C)CC)[C@@H](C)O)C(=O)N[C@@H](CC(C)C)C(=O)N[C@@H](CCC(=O)O)C(=O)N[C@@H](CCCNC(=N)N)C(=O)N[C@H](C(N)=O)C(C)C [compound 143] (H-FTLSLDVPTKIK([AEEA-AEEA-γGlu-C18 diacid])QILLKQEKQKKQRQKAKTNKQILERV-NH2) |  |  | 1.44 nM | 93.8 nM
3 | CC[C@H](C)[C@H](NC(=O)[C@H](CCC(N)=O)NC(=O)[C@H](CCCCN)NC(=O)[C@H](CC(N)=O)NC(=O)[C@@H](NC(=O)[C@H](CCCCN)NC(=O)[C@H](C)NC(=O)[C@H](CCCCN)NC(=O)[C@H](CCC(N)=O)NC(=O)[C@H](CCCNC(=N)N)NC(=O)[C@H](CCC(N)=O)NC(=O)[C@H](CCCCN)NC(=O)[C@H](CCCCN)NC(=O)[C@H](CCC(N)=O)NC(=O)[C@H](CCCNC(=N)N)NC(=O)[C@H](CCC(=O)O)NC(=O)[C@H](CCC(N)=O)NC(=O)[C@H](CCCCN)NC(=O)[C@H](CC(C)C)NC(=O)[C@H](CC(C)C)NC(=O)[C@@H](NC(=O)[C@H](CCC(N)=O)NC(=O)[C@H](CCCCNC(=O)COCCOCCNC(=O)COCCOCCNC(=O)CC[C@H](NC(=O)CCCCCCCCCCCCCCCCC(=O)O)C(=O)O)NC(=O)[C@@H](NC(=O)[C@H](CCCCN)NC(=O)[C@@H](NC(=O)[C@@H]1CCCN1C(=O)[C@@H](NC(=O)[C@H](CC(=O)O)NC(=O)[C@H](CC(C)C)NC(=O)[C@H](CO)NC(=O)[C@H](CC(C)C)NC(=O)[C@@H](NC(=O)[C@@H](N)Cc1ccccc1)[C@@H](C)O)C(C)C)[C@@H](C)O)[C@@H](C)CC)[C@@H](C)CC)[C@@H](C)O)C(=O)N[C@@H](CC(C)C)C(=O)N[C@@H](CCC(=O)O)C(=O)N[C@@H](CCCNC(=N)N)C(=O)N[C@H](C(N)=O)C(C)C [compound 144] (H-FTLSLDVPTKIK([AEEA-AEEA-γGlu-C18 diacid])QILLKQERQKKQRQKAKTNKQILERV-NH2) | 1.36 nM | 76.3 nM |  | 
4 | CC[C@H](C)[C@H](NC(=O)[C@H](CCC(N)=O)NC(=O)[C@H](CCCCN)NC(=O)[C@H](CC(N)=O)NC(=O)[C@H](CCCCN)NC(=O)[C@H](CCCCN)NC(=O)[C@H](C)NC(=O)[C@H](CCCCN)NC(=O)[C@H](CCC(N)=O)NC(=O)[C@H](CCCNC(=N)N)NC(=O)[C@H](CCC(N)=O)NC(=O)[C@H](CCCCN)NC(=O)[C@H](CCCCN)NC(=O)[C@H](CCC(N)=O)NC(=O)[C@H](CCCNC(=N)N)NC(=O)[C@H](CCC(=O)O)NC(=O)[C@H](CCC(N)=O)NC(=O)[C@H](CCCCN)NC(=O)[C@H](CC(C)C)NC(=O)[C@H](CC(C)C)NC(=O)[C@@H](NC(=O)[C@H](CCC(N)=O)NC(=O)[C@H](CCCCNC(=O)COCCOCCNC(=O)COCCOCCNC(=O)CC[C@H](NC(=O)CCCCCCCCCCCCCCCCC(=O)O)C(=O)O)NC(=O)[C@@H](NC(=O)[C@H](CCCCN)NC(=O)[C@@H](NC(=O)[C@@H]1CCCN1C(=O)[C@@H](NC(=O)[C@H](CC(=O)O)NC(=O)[C@H](CC(C)C)NC(=O)[C@H](CO)NC(=O)[C@H](CC(C)C)NC(=O)[C@@H](NC(=O)[C@@H](N)Cc1ccccc1)[C@@H](C)O)C(C)C)[C@@H](C)O)[C@@H](C)CC)[C@@H](C)CC)C(=O)N[C@@H](CC(C)C)C(=O)N[C@@H](CCC(=O)O)C(=O)N[C@@H](CCCNC(=N)N)C(=O)N[C@H](C(N)=O)C(C)C [compound 145] (H-FTLSLDVPTKIK([AEEA-AEEA-γGlu-C18 diacid])QILLKQERQKKQRQKAKKNKQILERV-NH2) | 1.46 nM | 96.9 nM |  | 
5 | CC[C@H](C)[C@H](NC(C)=O)C(=O)N[C@H](C(=O)N[C@@H](CC(C)C)C(=O)N[C@@H](CO)C(=O)N[C@@H](CC(C)C)C(=O)N[C@@H](CC(=O)O)C(=O)N[C@H](C(=O)N1CCC[C@H]1C(=O)N[C@H](C(=O)NCC(=O)N[C@@H](CC(C)C)C(=O)N[C@@H](CCCCNC(=O)COCCOCCNC(=O)COCCOCCNC(=O)CC[C@H](NC(=O)CCCCCCCCCCCCCCCCC(=O)O)C(=O)O)C(=O)N[C@@H](CCC(N)=O)C(=O)N[C@H](C(=O)N[C@@H](CC(C)C)C(=O)N[C@@H](CC(C)C)C(=O)N[C@@H](CCC(=O)O)C(=O)N[C@@H](CCC(N)=O)C(=O)N[C@@H](CCC(=O)O)C(=O)N[C@@H](CCCCN)C(=O)N[C@@H](CCC(N)=O)C(=O)N[C@@H](CCC(=O)O)C(=O)N[C@@H](CCCCN)C(=O)N[C@@H](CCC(=O)O)C(=O)N[C@@H](CCCCN)C(=O)N[C@@H](CCC(N)=O)C(=O)N[C@@H](CCC(N)=O)C(=O)N[C@@H](C)C(=O)N[C@@H](CCC(=O)O)C(=O)N[C@H](C(=O)N[C@@H](CC(N)=O)C(=O)N[C@@H](C)C(=O)N[C@@H](CCC(N)=O)C(=O)N[C@H](C(=O)N[C@@H](CC(C)C)C(=O)N[C@@H](C)C(=O)N[C@@H](CCC(N)=O)C(=O)N[C@H](C(N)=O)C(C)C)[C@@H](C)CC)[C@@H](C)O)[C@@H](C)CC)[C@@H](C)CC)C(C)C)C(C)C [compound 153] (Ac-IVLSLDVPIGLK([AEEA-AEEA-γGlu-C18 diacid])QILLEQEKQEKEKQQAETNAQILAQV-NH2) | 33.7 nM |  |  | 
